# Experimental data as given in patent publication US12139520B2 (priority 2020, dated 2024).
# Bridge positions count the residues as written; N and C are the ends. Square brackets hold non-standard residues; d marks the D form. Peptide text beside a SMILES is read from it. Hyp = O=C(O)[C@@H]1C[C@@H](O)CN1; Cit = NC(=O)NCCC[C@H](N)C(=O)O
# Experiments:
# [1] = target: hAM1 receptor (Homo sapiens, UniProt O60895+Q16602); experiment: cAMP assay for in vitro receptor activation, hAM1-R; format: cell-based; conditions: cAMP assay, hAM1 receptor; read-out: hAM1R EC50
# Chain of hAM1 receptor (Q16602 23-461): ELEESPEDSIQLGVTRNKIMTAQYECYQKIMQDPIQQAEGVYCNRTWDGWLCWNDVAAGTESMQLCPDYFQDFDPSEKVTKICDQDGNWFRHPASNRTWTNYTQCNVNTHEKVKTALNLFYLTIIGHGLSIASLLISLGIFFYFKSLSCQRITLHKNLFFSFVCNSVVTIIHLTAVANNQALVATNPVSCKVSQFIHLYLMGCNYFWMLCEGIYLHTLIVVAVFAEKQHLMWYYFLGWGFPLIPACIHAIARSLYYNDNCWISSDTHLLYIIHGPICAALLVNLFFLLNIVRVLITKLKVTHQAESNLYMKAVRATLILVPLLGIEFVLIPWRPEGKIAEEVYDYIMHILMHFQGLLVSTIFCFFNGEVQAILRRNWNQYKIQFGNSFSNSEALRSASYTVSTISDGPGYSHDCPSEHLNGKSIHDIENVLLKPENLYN
# Chain of hAM1 receptor (O60895 43-175 partner): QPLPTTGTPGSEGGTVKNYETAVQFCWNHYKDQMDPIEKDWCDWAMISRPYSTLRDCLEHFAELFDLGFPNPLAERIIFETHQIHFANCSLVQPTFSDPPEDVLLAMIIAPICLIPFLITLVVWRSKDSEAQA
# Outline: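 Receptor activation, read as cAMP, was assessed in thawed cells of a monoclonal hAM1-overexpressing stable line, plated at 8000 cells/well in DPBS supplemented with 0.05% casein and 0.5 mM IBMX.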
# [2] = Physical stability of peptide analogues (Thioflavin T fibrillation); format: physicochemical; conditions: maximum ThT signal normalized between hAMY maximum and buffer background; 40° C., shaking, four days; pH 7 per table title
# Outline: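 Peptides in 50 mM sodium acetate pH 4 or 50 mM sodium phosphate pH 7 were preincubated 1 h, mixed with 4 μM ThT, held at 40° C with 700 rpm shaking before each read. Fluorescence (ex 450/em 480 nm) every 10 min for four days; LOESS-smoothed maximum signal normalized in percent between hAMY and buffer.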
# [3] = target: T1, hAMY3 receptor (Homo sapiens, UniProt O60896+P30988); experiment: cAMP assay for in vitro receptor activation, hAMY3-R; format: cell-based; conditions: cAMP assay, hAMY3 receptor; read-out: hAMY3R EC50
# T1 sequence (P30988 25-474): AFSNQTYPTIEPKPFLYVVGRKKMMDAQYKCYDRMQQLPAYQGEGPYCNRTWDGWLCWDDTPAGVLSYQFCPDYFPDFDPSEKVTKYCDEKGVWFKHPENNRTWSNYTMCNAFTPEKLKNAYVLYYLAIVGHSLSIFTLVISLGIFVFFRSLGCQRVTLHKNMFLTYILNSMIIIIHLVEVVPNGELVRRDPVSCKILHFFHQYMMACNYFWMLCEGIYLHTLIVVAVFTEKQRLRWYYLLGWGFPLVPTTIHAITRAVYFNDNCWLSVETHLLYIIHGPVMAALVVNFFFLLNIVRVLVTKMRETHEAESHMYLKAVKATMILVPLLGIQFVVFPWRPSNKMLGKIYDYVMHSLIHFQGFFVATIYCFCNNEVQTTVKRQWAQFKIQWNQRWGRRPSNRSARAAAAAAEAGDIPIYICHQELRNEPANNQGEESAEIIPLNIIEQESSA
# T1 sequence (O60896 24-148 partner): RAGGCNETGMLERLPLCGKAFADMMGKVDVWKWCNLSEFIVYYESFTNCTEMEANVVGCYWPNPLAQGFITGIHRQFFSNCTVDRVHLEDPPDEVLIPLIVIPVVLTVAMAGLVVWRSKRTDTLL
# Outline: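 Monoclonal cell line stably overexpressing human AMY3 receptor, 2000 cells/well in DPBS with 0.05% casein and 0.5 mM IBMX. Stimulated 30 min at room temperature with graded compound doses, human amylin as positive control. cAMP accumulation read by TR-FRET after one hour.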
smiles,measurement,setting,value
CC[C@H](C)[C@H](NC(=O)[C@H](CCC(N)=O)NC(=O)[C@H](CC(=O)O)NC(=O)[C@H](C)NC(=O)[C@H](CC(C)C)NC(=O)[C@H](Cc1c[nH]c2ccccc12)NC(=O)[C@H](CC(N)=O)NC(=O)[C@@H](NC(=O)[C@@H](NC(=O)[C@@H]1CSSC[C@H](NC(=O)[C@@H](N)CCCNC(=N)N)C(=O)N[C@@H](CC(N)=O)C(=O)N[C@@H](C)C(=O)N[C@@H](CO)C(=O)N[C@@H]([C@@H](C)O)C(=O)N1)[C@@H](C)O)C(C)C)C(=O)N[C@H](C(=O)N[C@@H](CCC(N)=O)C(=O)N[C@@H](Cc1ccccc1)C(=O)N[C@@H](CO)C(=O)N[C@@H](CC(N)=O)C(=O)N[C@@H](CCCCN)C(=O)N[C@@H](CC(=O)O)C(=O)N[C@@H](CCCCN)C(=O)N[C@@H](C)C(=O)N[C@@H](CCC(N)=O)C(=O)N[C@H](C(=O)N[C@@H](CO)C(=O)N1CCC[C@H]1C(=O)N1CCC[C@H]1C(=O)N[C@H](C(=O)N[C@@H](CCC(=O)O)C(=O)N[C@H](C(=O)NCC(=O)N1CCC[C@H]1C(=O)N[C@@H](CC(N)=O)C(=O)N[C@@H](CO)C(=O)N1C[C@H](O)C[C@H]1C(N)=O)C(C)C)[C@@H](C)O)C(C)C)[C@@H](C)O [compound 307] (H-RCNASTCTVNWLADQITQFSNKDKAQVSPPTEVGPNS[Hyp]-NH2; disulfide 2-7; N-terminus assumed),EC50,[1],> 5000 nM
same,Max ThT signal (%),[2],11.200%
same,EC50,[3],0.01 nM
CC[C@H](C)[C@H](NC(=O)[C@H](CCC(N)=O)NC(=O)[C@H](Cc1c[nH]cn1)NC(=O)[C@H](C)NC(=O)[C@H](CC(C)C)NC(=O)[C@H](CCCNC(N)=O)NC(=O)[C@H](CCC(N)=O)NC(=O)[C@@H](NC(=O)[C@@H](NC(=O)[C@@H]1CSSC[C@H](NC(=O)CN)C(=O)N[C@@H](CCCNC(=N)N)C(=O)N[C@@H](Cc2ccccc2)C(=O)NCC(=O)N[C@@H]([C@@H](C)O)C(=O)N1)[C@@H](C)O)C(C)C)C(=O)N[C@@H](Cc1ccc(O)cc1)C(=O)N[C@@H](CCC(N)=O)C(=O)N[C@@H](Cc1ccccc1)C(=O)N[C@H](C(=O)N[C@@H](CC(=O)O)C(=O)N[C@@H](CCCCN)C(=O)N[C@@H](CC(=O)O)C(=O)N[C@@H](CCCCN)C(=O)N[C@@H](CC(=O)O)C(=O)N[C@@H](CC(N)=O)C(=O)N[C@H](C(=O)N[C@@H](C)C(=O)N1CCC[C@H]1C(=O)N[C@@H](CCCNC(=N)N)C(=O)N[C@H](C(=O)N[C@@H](CCCCN)C(=O)N[C@H](C(=O)N[C@@H](CO)C(=O)N1CCC[C@H]1C(=O)N[C@@H](CCC(N)=O)C(=O)NCC(=O)N1C[C@H](O)C[C@H]1C(N)=O)[C@@H](C)CC)[C@@H](C)O)C(C)C)[C@@H](C)O [compound 294] (H-GCRFGTCTVQ[Cit]LAHQIYQFTDKDKDNVAPRTKISPQG[Hyp]-NH2; disulfide 2-7),EC50,[1],> 5000 nM
same,Max ThT signal (%),[2],16.850%
same,EC50,[3],0.045 nM
CC[C@H](C)[C@H](NC(=O)[C@H](CCC(N)=O)NC(=O)[C@H](Cc1c[nH]cn1)NC(=O)[C@H](C)NC(=O)[C@H](CC(C)C)NC(=O)[C@H](CCCNC(=N)N)NC(=O)[C@H](CCC(N)=O)NC(=O)[C@@H](NC(=O)[C@@H](NC(=O)[C@@H]1CSSC[C@H](NC(=O)CN)C(=O)N[C@@H](CCCNC(=N)N)C(=O)N[C@@H](CCSC)C(=O)NCC(=O)N[C@@H]([C@@H](C)O)C(=O)N1)[C@@H](C)O)C(C)C)C(=O)N[C@@H](Cc1ccc(O)cc1)C(=O)N[C@@H](CCC(N)=O)C(=O)N[C@@H](Cc1ccccc1)C(=O)N[C@H](C(=O)N[C@@H](CC(N)=O)C(=O)N[C@@H](CCCCN)C(=O)N[C@@H](CC(=O)O)C(=O)N[C@@H](CCCCN)C(=O)N[C@@H](CC(=O)O)C(=O)N[C@@H](CC(N)=O)C(=O)N[C@H](C(=O)N[C@@H](C)C(=O)N1CCC[C@H]1C(=O)N[C@@H](CCCNC(=N)N)C(=O)N[C@@H](CO)C(=O)N[C@@H](CCCCN)C(=O)N[C@H](C(=O)N[C@@H](CO)C(=O)N1CCC[C@H]1C(=O)N[C@@H](CCC(N)=O)C(=O)N[C@H](C(=O)N1C[C@H](O)C[C@H]1C(N)=O)[C@@H](C)O)[C@@H](C)CC)C(C)C)[C@@H](C)O [compound 192] (H-GCRMGTCTVQRLAHQIYQFTNKDKDNVAPRSKISPQT[Hyp]-NH2; disulfide 2-7; N-terminus assumed),EC50,[1],> 5000 nM
same,Max ThT signal (%),[2],4.100%
same,EC50,[3],0.098 nM
